Measurements taken from patent US9113629B2, “4-amino-6-(4-substituted-phenyl)-picolinates and 6-amino-2-(4-substituted-phenyl)-pyrimidine-4-carboxylates and their use as herbicides” (DOW AGROSCIENCES LLC, priority 2013, dated 2015).
Where two headings read alike, the source gives them in different places.

Assays:
[1] = system: STEME: common chickweed (Stellaria media); assay: Post-emergent Test III, herbicidal activity in wheat and barley; type: in vivo
In short: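 GR20, GR50, GR80 and GR90 come from probit analysis of visual injury scores (0 = none, 100 = complete kill) taken 21 d after treatment. Foliar application was by track sprayer delivering 187 L/ha at five rates, from high down to 1/16×, onto greenhouse plants at the 2–3 leaf stage, with solvent-blank controls.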

[2] = system: test plant species in Direct Seeded Rice; assay: Postemergence herbicidal activity in direct seeded rice (Table 13); type: in vivo; settings: for pest or weed control at 35 g/ha / pest or weed control at 70 g/ha: post-emergence, 504 h; for pest or weed control at 35 g/ha: 35 g ai/ha; for pest or weed control at 70 g/ha: 70 g ai/ha
In short: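 Visual injury scores (0 no injury to 100 complete kill) taken 20-22 days after treatment were converted by probit analysis into GR20–GR90 doses. Treatment was an overhead track spray at 187 L/ha onto second-to-third true leaf plants, using acetone/DMSO (final 16.2%/0.5%) with Agri-dex crop oil; solvent blank served as control.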

[3] = BRAPP: broadleaf signalgrass, Brachiaria platyphylla, probit analysis
[4] = CYPSS: sedge (Cyperus difformis, esculentus, iria), probit analysis
[5] = ECHSS: barnyardgrass (Echinochloa crus-galli), junglerice (Echinochloa colonum), probit analysis
[6] = LEFSS: sprangletop (Leptochloa chinensis, Leptochloa dubia), probit analysis
[7] = SCPJU: Japanese bulrush, Scirpus juncoides, probit analysis
[8] = SEBEX: hemp sesbania, Sesbania exaltata, probit analysis
[9] = BRAPP: broadleaf signalgrass, Brachiaria platyphylla, read-out: Visual Growth Reduction (%) 21 Days After Application BRAPP
[10] = CYPSS: sedge (Cyperus difformis, esculentus, iria), read-out: Visual Growth Reduction (%) 21 Days After Application CYPSS
[11] = ECHSS: barnyardgrass (Echinochloa crus-galli), junglerice (Echinochloa colonum), read-out: Visual Growth Reduction (%) 21 Days After Application ECHSS
[12] = LEFSS: sprangletop (Leptochloa chinensis, Leptochloa dubia), read-out: Visual Growth Reduction (%) 21 Days After Application LEFSS
[13] = ORYSS: Oryza sativa, read-out: Visual Growth Reduction (%) 21 Days After Application ORYSS
[14] = SCPJU: Japanese bulrush, Scirpus juncoides, read-out: Visual Growth Reduction (%) 21 Days After Application SCPJU
[15] = SEBEX: hemp sesbania, Sesbania exaltata, read-out: Visual Growth Reduction (%) 21 Days After Application SEBEX

COC(=O)c1nc(-c2ccc(Cl)c(F)c2)c(F)c(N)c1Cl [Compound 216]
pest or weed control at 35 g/ha ([1]; Stellaria media, post-emergence, 504 h, 35 g ai/ha, read-out: Visual Growth Reduction (%) 21 Days After Application STEME): 30 to 44%
pest or weed control at 70 g/ha ([1]; Stellaria media, post-emergence, 504 h, 70 g ai/ha, read-out: Visual Growth Reduction (%) 21 Days After Application STEME): 30 to 44%
pest or weed control at 140 g/ha ([1]; Stellaria media, post-emergence, 504 h, 140 g ai/ha, read-out: Visual Growth Reduction (%) 21 Days After Application STEME): 75 to 84%
GR50 STEME ([1]; probit analysis, dose for growth reduction of 50 percent, 21 days after application): 52 g ai/ha
GR80 STEME ([1]; probit analysis, dose for growth reduction of 80 percent, 21 days after application): >140 g ai/ha
GR50 BRAPP [2, 3]: 8 g ai/ha
GR80 BRAPP [2, 3]: 27 g ai/ha
GR50 CYPSS [2, 4]: 10 g ai/ha
GR80 CYPSS [2, 4]: 70 g ai/ha
GR50 ECHSS [2, 5]: 4 g ai/ha
GR80 ECHSS [2, 5]: 15 g ai/ha
GR50 LEFSS [2, 6]: 8 g ai/ha
GR80 LEFSS [2, 6]: 23 g ai/ha
GR20 ORYSS ([2]; ORYSS: Oryza sativa (crop), probit analysis): >70 g ai/ha
GR50 SCPJU [2, 7]: 1 g ai/ha
GR80 SCPJU [2, 7]: 1 g ai/ha
GR50 SEBEX [2, 8]: 1 g ai/ha
GR80 SEBEX [2, 8]: 1 g ai/ha
pest or weed control at 35 g/ha [2, 9]: 85 to 94%
pest or weed control at 70 g/ha [2, 9]: 85 to 94%
pest or weed control at 35 g/ha [2, 10]: 85 to 94%
pest or weed control at 70 g/ha [2, 10]: 85 to 94%
pest or weed control at 35 g/ha [2, 11]: 85 to 94%
pest or weed control at 70 g/ha [2, 11]: 95 to 100%
pest or weed control at 35 g/ha [2, 12]: 85 to 94%
pest or weed control at 70 g/ha [2, 12]: 95 to 100%
pest or weed control at 35 g/ha [2, 13]: 0 to 29%
pest or weed control at 70 g/ha [2, 13]: 0 to 29%
pest or weed control at 35 g/ha [2, 14]: 95 to 100%
pest or weed control at 70 g/ha [2, 14]: 95 to 100%
pest or weed control at 35 g/ha [2, 15]: 95 to 100%
pest or weed control at 70 g/ha [2, 15]: 95 to 100%
